IC50 data for 22 compounds are collected here from patent US20260226068A1, “IMIDAZOTRIAZINE IL-17A MODULATORS AND USES THEREOF” (DICE ALPHA, INC., priority 2023, published 2026).

One assay concerns the target T1, IL-17A/F (Homo sapiens, UniProt Q16552+Q96PD4).
T1 construct: purchased R&D Systems
T1 sequence (Q16552 24-155): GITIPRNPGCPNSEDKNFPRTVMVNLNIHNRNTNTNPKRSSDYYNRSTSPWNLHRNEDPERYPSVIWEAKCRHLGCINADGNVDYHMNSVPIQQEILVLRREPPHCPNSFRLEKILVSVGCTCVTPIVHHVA
T1 sequence (Q96PD4 31-163): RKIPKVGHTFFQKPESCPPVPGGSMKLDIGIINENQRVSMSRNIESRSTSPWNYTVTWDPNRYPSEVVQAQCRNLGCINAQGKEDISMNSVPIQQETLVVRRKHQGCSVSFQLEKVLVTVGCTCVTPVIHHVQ
The experiment in a line: IL-17A/F HEK-Blue cell assay (SEAP reporter). Type of assay: cell-based. Conditions: HEK-Blue IL-17A reporter cells, IL17A/F 5 ng/mL, 20 hours, SEAP read at A630; read-out: HEK-Blue IL17AF (IC50 for IL-17A/F inhibition).

Another assay deals with T2, IL-17A/A (Homo sapiens, UniProt Q16552).
T2 construct: purchased Genscript Z03228
T2 sequence (Q16552 24-155): T1 sequence (Q16552 24-155)
The experiment in a line: IL-17A/A HEK-Blue cell assay (SEAP reporter). The class given is cell-based. As to conditions: HEK-Blue IL-17A reporter cells, IL17A/A 5 ng/mL, 20 hours, SEAP read at A630; read-out: HEK-Blue IL17AA (IC50 for IL-17A/A inhibition).

Some results are limits rather than exact numbers.

As to `CCn1ncnc1C(=O)N[C@H](c1cn2nc(C[C@H]3C[C@@H](C(F)(F)F)CNC3=O)c(C(C)C)nc2n1)C1CCC(F)(F)CC1` [Compound 386, N—((S)-(4,4-difluorocyclohexyl)(3-isopropyl-2-(((3R,5R)-2-oxo-5-(trifluoromethyl)piperidin-3-yl)methyl)imidazo[1,2-b][1,2,4]triazin-6-yl)methyl)-1-ethyl-1H-1,2,4-triazole-5-carboxamide], the IC50 is above 1000 nM on IL-17A/F and below 100 nM on IL-17A/A.

Turning to `CCn1nccc1C(=O)N[C@H](c1cn2nc(C[C@@H]3C(=O)NC4CC3C4)c(C3CCOCC3)nc2n1)C1CCC(F)(F)CC1` [Compound 425], the IC50 at IL-17A/F was above 1000 nM; on IL-17A/A, 100 to 1000 nM.

With `CCn1nccc1C(=O)N[C@H](c1cn2nc(C[C@H]3C[C@@H](C(F)(F)F)CNC3=O)c(C(C)C)nc2n1)[C@@H]1CCCC(F)(F)C1` [Compound 206, N-((1S)—((R)-3,3-difluorocyclohexyl)(3-isopropyl-2-(((3R,5R)-2-oxo-5-(trifluoromethyl)piperidin-3-yl)methyl)imidazo[1,2-b][1,2,4]triazin-6-yl)methyl)-1-ethyl-1H-pyrazole-5-carboxamide], the IC50 at IL-17A/F is 100 to 1000 nM; at IL-17A/A, below 100 nM.

As for `C=CCCc1nc2nc([C@@H](NC(=O)c3ccnn3CC)C3CCC(F)(F)CC3)cn2nc1C[C@H]1C[C@@H](C(F)(F)F)CNC1=O` [Compound 215, N-((1S)-(3-(but-3-en-1-yl)-2-(((3R,5R)-2-oxo-5-(trifluoromethyl)piperidin-3-yl)methyl)imidazo[1,2-b][1,2,4]triazin-6-yl)(4,4-difluorocyclohexyl)methyl)-1-ethyl-1H-pyrazole-5-carboxamide], the results for the IC50 at IL-17A/F and at IL-17A/A were 100 to 1000 nM and below 100 nM, respectively.

On to `CCn1nccc1C(=O)N[C@H](c1cn2nc(C[C@H]3C[C@@H](C(F)(F)F)CNC3=O)c(C3COCCN3C)nc2n1)C1CCC(F)(F)CC1` (single isomer, unassigned) [Compound 404], for which the IC50 on IL-17A/F was above 1000 nM; at IL-17A/A it was 100 to 1000 nM.

As for `CCn1nccc1C(=O)N[C@H](c1cn2nc(C[C@H]3C[C@@H](C(F)(F)F)CNC3=O)c(CN3CCC(F)(F)C3)nc2n1)C1CCC(F)(F)CC1` [Compound 333, N—((S)-(4,4-difluorocyclohexyl)(3-((3,3-difluoropyrrolidin-1-yl)methyl)-2-(((3R,5R)-2-oxo-5-(trifluoromethyl)piperidin-3-yl)methyl)imidazo[1,2-b][1,2,4]triazin-6-yl)methyl)-1-ethyl-1H-pyrazole-5-carboxamide], the IC50 on IL-17A/F was above 1000 nM; on IL-17A/A it was below 100 nM.

Take `CCc1nocc1C(=O)N[C@H](c1cn2nc(C[C@H]3C[C@@H](C(F)(F)F)CNC3=O)c(C3CCOCC3)nc2n1)C1CCC(F)(F)CC1` [Compound 146, N-((1S)-(4,4-difluorocyclohexyl)(2-(((3R,5R)-2-oxo-5-(trifluoromethyl)piperidin-3-yl)methyl)-3-(tetrahydro-2H-pyran-4-yl)imidazo[1,2-b][1,2,4]triazin-6-yl)methyl)-3-ethylisoxazole-4-carboxamide]: the IC50 on IL-17A/F is 100 to 1000 nM; at IL-17A/A, below 100 nM.

For the compound `O=C(N[C@H](c1cn2nc(C[C@H]3C[C@@H](C(F)(F)F)CNC3=O)c(C3CCCOC3)nc2n1)[C@@H]1CCCC(F)(F)C1)c1nonc1C1CC1` (single isomer, unassigned) [Compound 209], the IC50 at IL-17A/F is above 1000 nM; on IL-17A/A, below 100 nM.

As for `Cc1nonc1C(=O)N[C@H](c1cn2nc(C[C@H]3C[C@@H](C(F)(F)F)CNC3=O)c(C3CCCOC3)nc2n1)C1CCC(F)(F)CC1` (single isomer, unassigned) [Compound 265], the IC50 at IL-17A/F is above 1000 nM; on IL-17A/A, below 100 nM.

Regarding `CCn1nccc1C(=O)N[C@H](c1cn2nc(C[C@H]3C[C@@H](C(F)(F)F)CNC3=O)c(N3CCCOCC3)nc2n1)C1CCC(F)(F)CC1` [Compound 245, N—((S)-(3-(1,4-oxazepan-4-yl)-2-(((3R,5R)-2-oxo-5-(trifluoromethyl)piperidin-3-yl)methyl)imidazo[1,2-b][1,2,4]triazin-6-yl)(4,4-difluorocyclohexyl)methyl)-1-ethyl-1H-pyrazole-5-carboxamide], the IC50 on IL-17A/F was 100 to 1000 nM; on IL-17A/A, below 100 nM.

For `CCn1nccc1C(=O)N[C@H](c1cn2nc(C[C@H]3C[C@@H](C(F)(F)F)CNC3=O)c(CC3CCOC3)nc2n1)C1CCC(F)(F)CC1` (stereo partly drawn) [Compound 170, N-((1S)-(4,4-difluorocyclohexyl)(2-(((3R,5R)-2-oxo-5-(trifluoromethyl)piperidin-3-yl)methyl)-3-((tetrahydrofuran-3-yl)methyl)imidazo[1,2-b][1,2,4]triazin-6-yl)methyl)-1-ethyl-1H-pyrazole-5-carboxamide], the IC50 on IL-17A/F was 100 to 1000 nM; at IL-17A/A it was below 100 nM.

On to `CCn1nccc1C(=O)N[C@H](c1cn2nc(C[C@H]3C[C@@H](C(F)(F)F)CNC3=O)c(C3CCCOC3)nc2n1)[C@@H]1CCCC(F)(F)C1` (single isomer, unassigned) [Compound 71], for which the IC50 is 100 to 1000 nM at IL-17A/F and below 100 nM at IL-17A/A.

Take `CCn1nccc1C(=O)N[C@H](c1cn2nc(C[C@H]3C[C@@H](C(F)(F)F)CNC3=O)c(N3CCN(C)C(C4CC4)C3)nc2n1)C1CCC(F)(F)CC1` (single isomer, unassigned) [Compound 432]: the IC50 was 100 to 1000 nM on IL-17A/F and below 100 nM at IL-17A/A.

Take `O=C(N[C@H](c1cn2nc(C[C@H]3C[C@@H](C(F)(F)F)CNC3=O)c([C@H]3CCCOC3)nc2n1)[C@@H]1CCCC(F)(F)C1)c1nonc1C1CC1` [Compound 249]: the IC50 is 100 to 1000 nM on IL-17A/F and below 100 nM on IL-17A/A.

With `CCn1nccc1C(=O)N[C@H](c1cn2nc(C[C@H]3C[C@@H](C(F)(F)F)CNC3=O)c(CN3CCN(C)CC3)nc2n1)C1CCC(F)(F)CC1` [Compound 412, N—((S)-(4,4-difluorocyclohexyl)(3-((4-methylpiperazin-1-yl)methyl)-2-(((3R,5R)-2-oxo-5-(trifluoromethyl)piperidin-3-yl)methyl)imidazo[1,2-b][1,2,4]triazin-6-yl)methyl)-1-ethyl-1H-pyrazole-5-carboxamide], the figures for the IC50 at IL-17A/F and at IL-17A/A were above 1000 nM and 100 to 1000 nM, respectively.

As for `CCn1nccc1C(=O)N[C@H](c1cn2nc(C[C@H]3C[C@@H](C(F)(F)F)CNC3=O)c(C3CCS(=O)(=O)CC3)nc2n1)C1CCC(F)(F)CC1` [Compound 234, N—((S)-(4,4-difluorocyclohexyl)(3-(1,1-dioxidotetrahydro-2H-thiopyran-4-yl)-2-(((3R,5R)-2-oxo-5-(trifluoromethyl)piperidin-3-yl)methyl)imidazo[1,2-b][1,2,4]triazin-6-yl)methyl)-1-ethyl-1H-pyrazole-5-carboxamide], the figures for the IC50 at IL-17A/F and on IL-17A/A were 100 to 1000 nM and below 100 nM, respectively.

`CCn1nccc1C(=O)N[C@H](c1cn2nc(C[C@H]3C[C@@H](C(F)(F)F)CNC3=O)c(C3CCN(C)C3)nc2n1)C1CCC(F)(F)CC1` (single isomer, unassigned) [Compound 439]: the IC50 on IL-17A/F is above 1000 nM; on IL-17A/A it was 100 to 1000 nM.

On to `O=C(N[C@H](c1cn2nc(C[C@H]3C[C@@H](C(F)(F)F)CNC3=O)c(C3CCOC3)nc2n1)C1CCC(F)(F)CC1)c1nonc1C1CC1` (single isomer, unassigned) [Compound 134], for which the results for the IC50 at IL-17A/F and on IL-17A/A were above 1000 nM and below 100 nM, respectively.

In the case of `CCn1nccc1C(=O)N[C@H](c1cn2nc(C[C@H]3C[C@@H](C(F)(F)F)CNC3=O)c(CN3CC(F)(F)C3)nc2n1)C1CCC(F)(F)CC1` [Compound 332, N—((S)-(3-((3,3-difluoroazetidin-1-yl)methyl)-2-(((3R,5R)-2-oxo-5-(trifluoromethyl)piperidin-3-yl)methyl)imidazo[1,2-b][1,2,4]triazin-6-yl)(4,4-difluorocyclohexyl)methyl)-1-ethyl-1H-pyrazole-5-carboxamide], the IC50 on IL-17A/F was above 1000 nM; on IL-17A/A it was below 100 nM.

`CC(C)c1nocc1C(=O)N[C@H](c1cn2nc(CC3C[C@@H](C(F)(F)F)CNC3=O)cnc2n1)C1CCC(F)(F)CC1` (stereo partly drawn) [Compound 8, N—((S)-(4,4-difluorocyclohexyl)(2-(((5R)-2-oxo-5-(trifluoromethyl)piperidin-3-yl)methyl)imidazo[1,2-b][1,2,4]triazin-6-yl)methyl)-3-isopropylisoxazole-4-carboxamide]: the IC50 on IL-17A/F is above 1000 nM; on IL-17A/A, 100 to 1000 nM.

`CCn1nccc1C(=O)N[C@H](c1cn2nc(C[C@H]3C[C@@H](C(F)(F)F)CNC3=O)c(CNCC(F)(F)F)nc2n1)C1CCC(F)(F)CC1` [Compound 331, N—((S)-(4,4-difluorocyclohexyl)(2-(((3R,5R)-2-oxo-5-(trifluoromethyl)piperidin-3-yl)methyl)-3-(((2,2,2-trifluoroethyl)amino)methyl)imidazo[1,2-b][1,2,4]triazin-6-yl)methyl)-1-ethyl-1H-pyrazole-5-carboxamide]: the IC50 is 100 to 1000 nM at IL-17A/F and below 100 nM at IL-17A/A.

With `CCn1nccc1C(=O)N[C@H](c1cn2nc(C[C@H]3C[C@@H](C(F)(F)F)CNC3=O)c(N3C[C@@H](C)O[C@@H](C)C3)nc2n1)C1CCC(F)(F)CC1` [Compound 247, N—((S)-(4,4-difluorocyclohexyl)(3-((2R,6S)-2,6-dimethylmorpholino)-2-(((3R,5R)-2-oxo-5-(trifluoromethyl)piperidin-3-yl)methyl)imidazo[1,2-b][1,2,4]triazin-6-yl)methyl)-1-ethyl-1H-pyrazole-5-carboxamide], the IC50 at IL-17A/F was 100 to 1000 nM; at IL-17A/A, below 100 nM.
